# Measurements taken from patent publication US20240010606A1, “FUMARATE DERIVATIVES AND THEIR MEDICAL USE” (Sitryx Therapeutics Limited, priority 2020, published 2024).
# Key:
# IL-1β = assay: THP-1 AlphaLISA IL-1β cytokine assay; format: cell-based; conditions: Homo sapiens, differentiated THP-1 cells
# Method: (§1) Biological Example 1—THP-1 AlphaLISA IL-1β and IL-6 Cytokine Assay Measuring Inhibitory Effects on IL-1, and IL-6 Cytokine Output from THP-1s The cytokine inhibition profiles of compounds of formula (I) were determined in a differentiated THP-1 cell assay. All assays were performed in RPMI-1640 growth medium (Gibco), supplemented with 10% fetal bovine serum (FBS; Gibco), 1% penicillin-streptomycin and 1% sodium pyruvate unless specified otherwise. The IL-1β and IL-6 cytokine inhibition assays were each run in a background of differentiated THP-1 cells as described below. All reagents described were from Sigma-Aldrich unless specified otherwise. Compounds were prepared as 10 mM DMSO stocks. THP-1 cells were expanded as a suspension up to 80% confluence in appropriate growth medium. Cells were harvested, suspended, and treated with an appropriate concentration of phorbol 12-myristate 13-acetate (PMA) over a 72 hr period (37° C./5% CO2). Following 72 hrs of THP-1 cell incubation, cellular medium was removed and replaced with fresh growth media containing 1% of FBS. Working concentrations of compounds were prepared separately in 10% FBS treated growth medium and pre-incubated with the cells for 30 minutes (37° C./5% CO2). Following the 30 minute compound pre-incubation, THP-1s were treated with an appropriate concentration of LPS and the THP-1s were subsequently incubated for a 24 hr period (37° C./5% CO2). An appropriate final concentration of Nigericin was then dispensed into the THP-1 plates and incubated for 1 hour (37° C./5% CO2) before THP-1 supernatants were harvested and collected in separate polypropylene 96-well holding plates. Reagents from each of the IL-1β and IL-6 commercial kits (Perkin Elmer) were prepared and run according to the manufacturer's instructions. Subsequently, fluorescence signal detection in a microplate reader was measured (EnVision® Multilabel Reader, Perkin Elmer). Percentage inhibition was calculated per cytokine by normalizing the sample data to the high and low controls used within each plate (+/−LPS respectively). Percentage inhibition was then plotted against compound concentration and the 50% inhibitory concentration (IC50) was determined from the resultant concentration-response curve.
# IL-6 = assay: THP-1 AlphaLISA IL-6 cytokine assay; format: cell-based; conditions: Homo sapiens, THP-1, differentiated THP-1 cells
# Method: as §1
# [1] = Hepatocyte stability assay, mouse; format: in vitro ADME; conditions: mouse, cryopreserved hepatocytes, 10 μM compound
# Source text: (§2) Biological Example 3—Hepatocyte Stability Assay
# (§3) Defrosted cryo-preserved hepatocytes (viability >70%) are used to determine the metabolic stability of a compound via calculation of intrinsic clearance (CIint; a measure of the removal of a compound from the liver in the absence of blood flow and cell binding). Clearance data are particularly important for […] as they can be used in combination with in vivo data to predict the half-life and oral bioavailability of a drug.
# (§4) The metabolic stability in hepatocytes assay involves a time-dependent reaction using both positive and negative controls. The cells must be pre-incubated at 37° C. then spiked with test compound (and positive control); samples taken at pre-determined time intervals are analysed to monitor the change in concentration of the initial drug compound over 60 minutes. A buffer incubation reaction (with no hepatocytes present) acts as a negative control and two cocktail solutions, containing compounds with known high and low clearance values (verapamil/7-hydroxycoumarin and propranolol/diltiazem), act as positive controls. • 1. The assay is run with a cell concentration of 0.5×10^6 cells/mL in Leibovitz buffer. • 2. All compounds and controls are run in duplicate. • 3. Compound concentration is 10 μM. • 4. All compounds and controls are incubated with both cells and buffer to show turnover is due to hepatic metabolism. • 5. All wells on the incubation plate will have 326.7 μL of either cells or buffer added. • 6. Prior to assay, cell and buffer-only incubation plates are preincubated for 10 mins at 37° C. • 7. The assay is initiated by adding compounds, 3.3 μL of 1 mM in 10% DMSO-90% Buffer; final DMSO concentration is 0.1%. • 8. Samples are taken at regular timepoints (0, 5, 10, 20, 40, 60 min) until 60 mins. • 9. Sample volume is 40 μL and it is added to 160 μL of crash solvent (acetonitrile with internal standard) and stored on ice. • 10. At the end of the assay, the crash plates are centrifuged at 3500 rpm for 20 mins at 4° C. • 11. 80 μL of clear supernatant is removed and mixed with 80 μL of deionised water before being analysed by LC-MS/MS.
# (§5) Raw LC-MS/MS data are exported to, and analysed in, Microsoft Excel for determination of intrinsic clearance. The percentage remaining of a compound is monitored using the peak area of the initial concentration as 100%. Intrinsic clearance and half-life values are calculated using a graph of the natural log of percentage remaining versus the time of reaction in minutes. Half-life (min) and intrinsic clearance (CIint in μL min^−1 10^−6 cells) values are calculated using the gradient of the graph (the elimination rate constant, k) and Equations 1 and 2.
# hepatocytes [2] = assay: Hepatocyte stability assay, mouse; format: in vitro ADME; conditions: 10 μM compound
# Source text: as §2, §3, §4, §5
# [3] = Hepatocyte stability assay, human; format: in vitro ADME; conditions: cryopreserved hepatocytes, 10 μM compound
# Source text: as §2, §3, §4, §5
# hepatocytes [4] = assay: Hepatocyte stability assay, human; format: in vitro ADME; conditions: 10 μM compound
# Source text: as §2, §3, §4, §5
# NRF2 = NRF2 activation assay (DiscoverX PathHunter NRF2 translocation kit, U2OS cells); format: cell-based; conditions: Table 4, compounds of formula (II)
# Method: Biological Example 2—NRF2 Activation Assay Measuring Compound Activation Effects on the Anti-Inflammatory Transcription Factor NRF2 in DiscoverX PathHunter NRF2 Translocation Kit Potency and efficacy of compounds of formula (I) against the target of interest to activate NRF2 (nuclear factor erythroid 2-related factor 2) were determined using the PathHunter NRF2 translocation kit (DiscoverX). The NRF2 translocation assay was run using an engineered recombinant cell line, utilising enzyme fragment complementation to determine activation of the Keap1-NRF2 protein complex and subsequent translocation of NRF2 into the nucleus. Enzyme activity was quantified using a chemiluminescent substrate consumed following the formation of a functional enzyme upon PK-tagged NRF2 translocation into the nucleus. Additionally, a defined concentration of dimethyl fumarate was used as the ‘High’ control to normalise test compound activation responses to. U2OS PathHunter eXpress cells were thawed from frozen prior to plating. Following plating, U2OS cells were incubated for 24 hrs (37° C./5% CO2) in commercial kit provided cell medium. Following 24 hrs of U2OS incubation, cells were directly treated with an appropriate final concentration of compound. Following compound treatment, the U2OS plates were incubated for a further 6 hours (37° C./5% CO2) before detection reagent from the PathHunter NRF2 commercial kit was prepared and added to test plates according to the manufacturer's instructions. Subsequently, the luminescence signal detection in a microplate reader was measured (PHERAstar®, BMG Labtech). Percentage activation was calculated by normalising the sample data to the high and low controls used within each plate (+/−DMF). Percentage activation/response was then plotted against compound concentration and the 50% activation concentration (EC50) was determined from the plotted concentration-response curve.
# [5] = Table 2, compounds of formula (II)
SMILES,IC50 (IL-1β; [5]),IC50 (IL-6; [5]),"half-life at 10 μM ([1]; Table 6, read-out: T½)",CIint (hepatocytes [2]; Table 6),"half-life at 10 μM ([3]; Table 6, read-out: T½)",CIint (hepatocytes [4]; Table 6),"IC50 (IL-1β; LPS then Nigericin, Table 1)","IC50 (IL-6; LPS then Nigericin, Table 1)","half-life at 10 μM ([1]; Table 5, read-out: T½)",CIint (hepatocytes [2]; Table 5),"half-life at 10 μM ([3]; Table 5, read-out: T½)",CIint (hepatocytes [4]; Table 5),EC50 (NRF2; +GSH),NRF2 activation Emax (NRF2; +GSH),EC50 (NRF2; −GSH),NRF2 activation Emax (NRF2; −GSH)
"C[C@H]1C[C@](OC(=O)/C=C/C(=O)O)(c2ccc(C(F)(F)F)cc2)C1 (single isomer, unassigned) [Intermediate 33, (E)-4-((cis)-3-methyl-1-(4-(trifluoromethyl)phenyl)cyclobutoxy)-4-oxobut-2-enoic acid]",< 6 µM,< 6 µM,30 to 100 min,+++ (+++ means >15-30),> 100 min,++++ (++++ means 5-15),–,–,–,–,–,–,–,–,–,–
"O=C(O)/C=C/C(=O)OC(c1ccc(C(F)(F)F)cc1)C(F)(F)F (single isomer, unassigned) [Intermediate 44, (E)-4-oxo-4-(2,2,2-trifluoro-1-(4-(trifluoromethyl)phenyl)ethoxy)but-2-enoic acid]",< 6 µM,< 6 µM,< 5 min,+ (+ means >110-277),5 to 29 min,++ (++ means >30-110),–,–,–,–,–,–,–,–,–,–
"O=C(O)CCOC(=O)/C=C/C(=O)OC1(c2ccc(C(F)(F)F)cc2)CCC1 [Example 16, (E)-3-(4-oxo-4-(1-(4-(trifluoromethyl)phenyl)cyclobutoxy)but-2-enoyloxy)propanoic acid]",–,–,–,–,–,–,2.5 to 6.1 µM,< 2.5 µM,< 5 min,+ (+ means >277),5 to 29 min,+++ (+++ means 50-149),–,–,–,–
"O=C(O)/C=C/C(=O)OC1CCCCCCC1 [Intermediate 6, (E)-4-(cyclooctyloxy)-4-oxobut-2-enoic acid]",6 to 30 µM,–,5 to 29 min,++ (++ means >30-110),> 100 min,++++ (++++ means 5-15),–,–,–,–,–,–,< 23 µM,++++ (++++ means >150%),< 23 µM,++++ (++++ means >150%)
"O=C(O)/C=C/C(=O)OC1CC2(CCC2)C1 [Intermediate 7, (E)-4-oxo-4-(spiro[3.3]heptan-2-yloxy)but-2-enoic acid]",6 to 30 µM,–,5 to 29 min,++ (++ means >30-110),30 to 100 min,+++ (+++ means >15-30),–,–,–,–,–,–,< 23 µM,+++ (+++ means >114-150%),< 23 µM,++++ (++++ means >150%)
"O=C(O)/C=C/C(=O)OC1CCCCCC1 [Intermediate 8, (E)-4-(cycloheptyloxy)-4-oxobut-2-enoic acid]",30 to 50 µM,–,30 to 100 min,++ (++ means >30-110),30 to 100 min,+++ (+++ means >15-30),–,–,–,–,–,–,23 to 48.4 µM,+++ (+++ means >114-150%),< 23 µM,++++ (++++ means >150%)
"O=C(O)/C=C/C(=O)OC1(c2ccc(C(F)(F)F)cc2)CSC1 [Intermediate 17, (E)-4-oxo-4-((3-(4-(trifluoromethyl)phenyl)thietan-3-yl)oxy)but-2-enoic acid]",6 to 30 µM,6 to 30 µM,5 to 29 min,+ (+ means >110-277),5 to 29 min,++ (++ means >30-110),–,–,–,–,–,–,–,–,–,–
"O=C(O)/C=C/C(=O)OC1(c2ccc(C(F)(F)F)cc2)COC1 [Intermediate 18, (E)-4-oxo-4-((3-(4-(trifluoromethyl)phenyl)oxetan-3-yl)oxy)but-2-enoic acid]",6 to 30 µM,6 to 30 µM,30 to 100 min,++ (++ means >30-110),30 to 100 min,++ (++ means >30-110),–,–,–,–,–,–,–,–,–,–
"O=C(O)/C=C/C(=O)OC1(c2cc(F)c(C(F)(F)F)c(F)c2)CCC1 [Intermediate 29, (E)-4-(1-(3,5-difluoro-4-(trifluoromethyl)phenyl)cyclobutoxy)-4-oxobut-2-enoic acid]",< 6 µM,< 6 µM,30 to 100 min,+++ (+++ means >15-30),> 100 min,++++ (++++ means 5-15),–,–,–,–,–,–,–,–,–,–
"O=C(O)/C=C/C(=O)OC1(c2ccc(C(F)(F)F)cc2)CC(F)(F)C1 [Intermediate 32, (E)-4-(3,3-difluoro-1-(4-(trifluoromethyl)phenyl)cyclobutoxy)-4-oxobut-2-enoic acid]",< 6 µM,< 6 µM,30 to 100 min,+++ (+++ means >15-30),30 to 100 min,+++ (+++ means >15-30),–,–,–,–,–,–,–,–,–,–
"O=C(O)/C=C/C(=O)OC1(c2ccc(C(F)(F)F)s2)CCC1 [Intermediate 36, (E)-4-oxo-4-(1-(5-(trifluoromethyl)thiophen-2-yl)cyclobutoxy)but-2-enoic acid]",< 6 µM,–,30 to 100 min,++ (++ means >30-110),> 100 min,++++ (++++ means 5-15),–,–,–,–,–,–,< 23 µM,++ (++ means >87-114%),< 23 µM,+++ (+++ means >114-150%)
